# Source: US20070248954A1, “Primers for Use in Detecting Beta-Lactamases” (Creighton University, priority 2003, published 2007)
# Experiments:
# [1] = tested on: Twenty two isolates representing E. coli (Ec), Citrobacter freundii (Cf) and C. koseri (Ck); assay: MICs of the 22 isolates of Example 1; assay type: cell-based; settings: read-out: MICs; all 22 isolates (E. coli, C. freundii, C. koseri)
# Protocol: Twenty two isolates representing E. coli (Ec), Citrobacter freundii (Cf) and C. koseri (Ck) were studied. All of these strains had MICs of greater than (>) 32 micrograms per milliliter […] of cefotaxime, >16 mg/ml of cefepime, and ranged between 1 to 8 mg/ml for ceftazidime. Dendrogram analysis of CTX-M genes deposited in GenBank was performed, and based on these analyses, known CTX-M-genes were divided into four families. Based on these families, four sets of family-specific primers were designed. Specificity of the primers was tested on all 22 of the isolates.
# [2] = tested on: Total (n = 175) clinical strains producing extended-spectrum β-lactamases; assay: ESBL screening of clinical strains; assay type: cell-based, E. coli, K. pneumoniae; settings: drug 1 μg/ml
# Protocol: (§1) A total of 175 isolates representing E. coli (n=168), K. pneumoniae (n=7) were studied. Minimum inhibitory concentrations (MICs) to the following drugs were determined by Vitek (Vitek AMS; bioMérieux Vitek 5 Systems Inc., Hazelwood, Mo.); piperacillin (PIP), piperacillin/tazobactam (TZP), cefpodoxime (CPD), cefotaxime (CTX), ceftazidime (CAZ). The quality control strains used for this study were E. coli ATCC 25922, E. coli 35218, Pseudomonas aeruginosa ATCC 27853, Staphlylococcus aureus ATCC 29213, and K. pneumoniae ATCC 700603. Throughout this study, results were interpreted using National Committee for Clinical Laboratory Standards (NCCLS) criteria for broth dilution.
# (§2) The presence of ESBLs was evaluated in both the control strains and the recent clinical isolates. Screening was performed with Vitek (Vitek AMS; bioMerieux Vitek Systems, Inc., Hazelwood, Mo.) using 1 μg/ml CPD, CAZ, and CTX. Screening and disk confirmation tests using CTX (30 μg) and CAZ (30 μg) disks in combination with 10 μg clavulanate (CLA) were performed and interpreted using NCCLS criteria for ESBL screening and disk confirmation tests. Disks for_ESBL confirmation tests were obtained from Oxoid Inc. (Nepean, Ontario, Canada). K. pneumoniae ATCC 700603 and E. coli ATCC 25922 were used as positive and negative controls, respectively.
# ESBL-producing strains = settings: drug used as an initial screen; cited from earlier work
# [3] = tested on: E. coli (n = 24), Positive for CTX-M-1 group; assay: ESBL screening of clinical strains; assay type: cell-based; settings: drug 1 μg/ml
# Protocol: as §1, §2
# [4] = tested on: K. pneumoniae (n = 2), Positive for CTX-M-1V group; assay: ESBL screening of clinical strains; assay type: cell-based; settings: drug 1 μg/ml
# Protocol: as §1, §2
# [5] = tested on: E. coli (n = 93), Positive for CTX-M-1V group; assay: ESBL screening of clinical strains; assay type: cell-based; settings: drug 1 μg/ml
# Protocol: as §1, §2
# [6] = tested on: K. pneumoniae (n = 5), PCR for blaCTXM genes Negative; assay: ESBL screening of clinical strains; assay type: cell-based; settings: drug 1 μg/ml
# Protocol: as §1, §2
# [7] = tested on: E. coli (n = 51), PCR for blaCTXM genes Negative; assay: ESBL screening of clinical strains; assay type: cell-based; settings: drug 1 μg/ml
# Protocol: as §1, §2
# [8] = tested on: DNA template prepared from control strains known to produce specific CTX-M β-lactamases or ESBLs other than CTX-M β-lactamases; assay: PCR specificity test of designed primers on control strains; settings: for amplification with the rest of the control strains: DNA template from all other control strains in Table 1; for size of single amplified product: DNA template from the control strains of the primer set's own group
# Text: Once the primers are designed, their specificity can be tested using the following method. Depending on the target nucleic acid of clinical interest, a nucleic acid is isolated from a bacterial control strain known to express or contain the resistance gene. This control strain, as used herein, refers to a “positive control” nucleic acid (typically, DNA). Additionally, a “negative control” nucleic acid (typically, DNA) can be isolated from one or more bacterial strains known to express a resistance gene other than the target gene of interest. Using the polymerase chain reaction, the designed primers are employed in a detection method, as described above, and used in the positive and negative control samples and in at least one test sample suspected of containing the resistance gene of interest. The positive and negative controls provide an effective and qualitative (or grossly quantitative) means by which to establish the presence or the absence of the gene of interest of test clinical samples. It should be recognized that with a small percentage of primer pairs, possible cross-reactivity with other β-lactamase genes might be observed. However, the size and/or intensity of any cross-reactive amplified product will be considerably different and can therefore be readily evaluated and dismissed as a negative result.
# Polymerase Chain Reaction (PCR) amplifications were carried out on a Thermal Cycler 9600 instrument (Applied Biosystems, Norwalk, Conn.) as indicated in Example 1, with the primers, the size of the expected amplification product, and annealing temperatures used for the PCR as listed in Table 1. Magnesium chloride concentrations were 1.5 mM for all PCR reactions.
# The designed primers were tested for specificity in separate PCR reactions using DNA template prepared from control strains known to produce specific CTX-M β-lactamases or strains producing ESBLs other than CTX-M β-lactamases (Tables 1 and 2, FIG. 3). […] Group II primers amplified a single 351 bp fragment when DNA template was prepared from control strains Rio-4, 34, and CT1.
# Group IV primers amplified a 474 bp product from DNA prepared from strains 785D, EC984167, CF1, Rio-6, BM4493, ILT-2, and ILT-3. […] An isolate producing CTX-M-25 was requested but not obtained. Therefore, we were unable to examine the ability of the Group III primer set to amplify blaCTX-M-25.
MIC [1] [µg/mL],Molecule,"Screening, No positive [2]","Screening, No positive (%) [2]","Screening, No positive [3]","Screening, No positive (%) [3]","Screening, No positive [4]","Screening, No positive (%) [4]","Screening, No positive [5]","Screening, No positive (%) [5]","Screening, No positive [6]","Screening, No positive (%) [6]","Screening, No positive [7]","Screening, No positive (%) [7]",amplification with the rest of the control strains [8],size of single amplified product [8] [bp],further results
–,"COCC1=C(C(=O)O)N2C(=O)[C@@H](NC(=O)/C(=N\OC)c3csc(N)n3)[C@H]2SC1 [CPD, cefpodoxime]",175,(100%),24,(100%),2,(100%),93,(100%),5,(100%),51,(100%),–,–,–
> 32,"CO/N=C(\C(=O)N[C@@H]1C(=O)N2C(C(=O)O)=C(COC(C)=O)CS[C@H]12)c1csc(N)n1 [CTX, cefotaxime]",171,(98%),24,(100%),2,(100%),93,(100%),4,(80%),48,(94%),–,–,–
> 16,CO/N=C(\C(=O)N[C@@H]1C(=O)N2C(C(=O)[O-])=C(C[N+]3(C)CCCC3)CS[C@H]12)c1csc(N)n1 [cefepime],–,–,–,–,–,–,–,–,–,–,–,–,–,–,–
–,"CTX-M-I group: primer pair of SEQ ID NO:1 and SEQ ID NO:2, Group 1 CTX-M β-lactamases, 499 base pair amplicon (DNA 1 GACGATGTCACTGGCTGAGC; DNA 2 AGCCGCCGACGCTAATACA; PCR primers, chemistry not given here, further chemistry not given here)",–,–,–,–,–,–,–,–,–,–,–,–,No amplified product,499,–
–,"CTX-M-II group: primer pair of SEQ ID NO:3 and SEQ ID NO:4, Group 2 CTX-M β-lactamases, 351 base pair amplicon (DNA 1 GCGACCTGGTTAACTACAATCC; DNA 2 CGGTAGTATTGCCCTTAAGCC; PCR primers, chemistry not given here, further chemistry not given here)",–,–,–,–,–,–,–,–,–,–,–,–,no amplification product,351,–
–,"CTX-M-III group: primer pair of SEQ ID NO:7 and SEQ ID NO:8, Group 3 or Group 5 CTX-M β-lactamases, 307 base pair amplicon (DNA 1 CGCTTTGCCATGTGCAGCACC; DNA 2 GCTCAGTACGATCGAGCC; PCR primers, chemistry not given here, further chemistry not given here)",–,–,–,–,–,–,–,–,–,–,–,–,–,–,"control strains whose DNA was amplified ([8]; all control strains of Table 1): amplification of DNA prepared from only one strain, Rio-3"
–,"CTX-M-VI group: primer pair of SEQ ID NO:5 and SEQ ID NO:6, Group 4 CTX-M β-lactamases, 474 base pair amplicon (DNA 1 GCTGGAGAAAAGCAGCGGAG; DNA 2 GTAAGCTGACGCAACGTCTG; PCR primers, chemistry not given here, further chemistry not given here)",–,–,–,–,–,–,–,–,–,–,–,–,no amplification of DNA,474,–

Molecule,MIC [1] [µg/mL],"Screening, No positive [2]","Screening, No positive (%) [2]","Screening, No positive [3]","Screening, No positive (%) [3]","Screening, No positive [4]","Screening, No positive (%) [4]","Screening, No positive [5]","Screening, No positive (%) [5]","Screening, No positive [6]","Screening, No positive (%) [6]","Screening, No positive [7]","Screening, No positive (%) [7]",amplification with the rest of the control strains [8],size of single amplified product [8] [bp],further results
"CC(C)(O/N=C(\C(=O)N[C@@H]1C(=O)N2C(C(=O)[O-])=C(C[n+]3ccccc3)CS[C@H]12)c1csc(N)n1)C(=O)O [CAZ, ceftazidime]",1 to 8,151,(86%),24,(100%),0,(0%),71,(76%),5,(100%),51,(100%),–,–,ESBL-producing strains not detected (ESBL-producing strains): about 14%
